# Source: US11198710B2, “Transgenic plant having herbicide resistance” (priority 2016, dated 2021)
# Experiments:
# [1] = test system: Arabidopsis thaliana plant comprising the TaQ8GTC0 gene introduced therein; assay: Sensitivity of Arabidopsis thaliana comprising the TaQ8GTC0 gene to herbicides on MS agar medium; format: in vivo; details: for growth of the Arabidopsis thaliana plant comprising the TaQ8GTC0 gene: KLB-718 1-1-5, 22° C.
# Description: A medium was prepared as described below, so as to examine the pyroxasulfone resistance of the Arabidopsis thaliana plant comprising the TaQ8GTC0 gene introduced therein. At the outset, the Murashige-Skoog (MS) media (1 bag), thiamin hydrochloride (3 mg), nicotinic acid (5 mg), pyridoxin hydrochloride (0.5 mg), and sucrose (10 g) were added into a 1-liter beaker, a pH was adjusted to 5.7, the volume of the content was adjusted to 1 liter, and 8 g (0.8%) of agar was added. The resultant was autoclaved and cooled to room temperature, and pyroxasulfone (an acetone solution) was added thereto. A 30-ml fraction thereof was fractionated into a No. 2 square plate to prepare an MS medium containing pyroxasulfone at a given concentration.
# Pyroxasulfone sensitivity of transgenic Arabidopsis thaliana plants was tested with the use of the medium prepared above as described below. A necessary amount of Arabidopsis thaliana dry seeds was agitated in 70% ethanol for 2 minutes and in hypochlorous acid containing 0.02% Triton-X-100 for 15 minutes, followed by washing with sterile water 10 times. Subsequently, the seeds were suspended in 1 ml of the autoclaved 0.1% agar solution, the suspension was thoroughly mixed to prepare a homogeneous solution, and a total of 30 seeds were each placed on the medium surface. The resultant was sealed with a surgical tape, allowed to stand at 4° C. for 2 days, and then transferred to 22° C. for germination.
# On the basis of the concentrations above, sensitivity of the Arabidopsis thaliana plant comprising the TaQ8GTC0 gene introduced therein to VLCFAE-inhibiting herbicides was examined. The results are show in FIGS. 13 and 14. The photographs shown in FIGS. 13 and 14 were taken after the plants were grown at 22° C. for 14 days.
# [2] = test system: TaQ8GTB9; assay: Pyroxasulfone metabolizing activity based on fatty acid content in cultured rice cells; format: cell-based, wheat; details: cultured rice cells with TaQ8GTB9 gene; 10^−7M or 10^−6M pyroxasulfone, liquid culture 14 to 17 days
# Description: The transgenic cultured rice cells thus prepared were used for liquid culture in the presence of pyroxasulfone. Pyroxasulfone was added to the liquid medium as an acetone solution. The final acetone concentration was 0.1%. When liquid culture was carried out, cultured rice cells transformed with KLB-279 (a plasmid comprising Act1p (rice actin 1 promoter)::sGFP::NOSt incorporated into the MCS of PalSelect R-4) were designated as the control samples. Liquid culture was carried out as described below. […]
# Fatty acid was extracted using undecenoic acid (C11:1) as an internal standard. As analytical standards, Supelco FAME mix containing C14:0, C16:0, C16:1, C18:0, C18:1, C18:2, C18:3, C20:0, C22:0, C22:1, and C24:0 and other fatty acid methyl esters (C11:1, C15:0, C20:1, and C26:0) were used, and calibration curves thereof were prepared, followed by quantification. […] Quantitative and qualitative analyses were carried out as methyl esters, although fatty acid methyl esters were converted into fatty acids at the time of quantitative analysis. […]
# [3] = test system: cultured rice cells; details: culture in a pyroxasulfone-containing liquid medium; cited from earlier work
compound,measurement,setting,value
"Cn1nc(C(F)(F)F)c(CS(=O)(=O)C2=NOC(C)(C)C2)c1OC(F)F [Pyroxasulfone, 3-[5-(difluoromethoxy)-1-methyl-3-(trifluoromethyl)pyrazol-4-ylmethylsulfonyl]-4,5-dihydro-5,5-dimethyl-1,2-oxazole]",sensitivity of the Arabidopsis thaliana plant comprising the TaQ8GTC0 gene to VLCFAE-inhibiting herbicides,"[1]; KLB-718 1-1-5, concentrations of Table 5, 22° C., 14 days",strong resistance
same,pyroxasulfone resistance relative to wild-type (Columbia-0),[1]; all 7 lines used in the test,at least 10 times
same,growth of the Arabidopsis thaliana plant comprising the TaQ8GTC0 gene,"[1]; pyroxasulfone 1 μM, 14 days",in the same manner as with the Control
same,growth of the Arabidopsis thaliana plant comprising the TaQ8GTC0 gene,"[1]; pyroxasulfone 10 μM, 14 days",sufficiently grew
same,pyroxasulfone metabolizing activity (C15:0 and VLCFA contents),[2],no pyroxasulfone metabolizing activity
same,C15:0 (pentadecanoic acid) content,[3],remarkably increased
same,content of very-long-chain fatty acid (VLCFA),[3],drastically decreases
